According to article PMC9933440 (Crystal Growth & Design, 2022):
≈ marks a conversion by molar mass, not a printed value. Where “and” joins values, the source holds several entries; their conditions need not be identical. Equal entries are not always repeated. Where two headings read alike, the source gives them in different places.

Tests used:
[1] = pKa (base) – pKa (acid)
[2] = cited from earlier work
[3] = cited from earlier work; remark: listed apart in the source
[4] = cited from earlier work; remark: listed apart in the source
[5] = Solubility experiments in sodium phosphate buffer pH 6.5, 37 °C (HPLC); conditions: for dissolved MEL / dissolved PRM: highest dissolved concentration, sodium phosphate buffer pH 6.5, 37 °C
Procedure: Solubility experiments were conducted in sodium phosphate buffer solutions at pH 6.5 and 37 °C to simulate intestinal physiological conditions. For each experiment, an excess crystalline solid was sieved through a 300 μm sieve and introduced into a flask with a screw top containing 100 mL of the medium. The solution was stirred at 200 rpm using a magnetic stir bar for 48 h to reach the equilibrium state. […] After each sampling, the volume of the liquid removed from the suspension was not compensated. The withdrawn suspension was filtered through 0.2 μm nylon filters and diluted prior to high-performance liquid chromatography (HPLC) analysis. The solubility experiment for each crystal form was repeated in triplicate. After the last sample collection, the remaining solid material in the suspension was filtered, dried, and characterized by IR and PXRD.
A C18 HPLC column (YMC-Pack ODS-A column, 4.6 mm × 250 mm, 5 μm) with a flow rate of 1 mL min^–1 was employed, and the column temperature was set at 25 °C. The binary mobile phase consisted of acetonitrile and sodium phosphate buffer (pH 6.5) in a volume ratio of 25:75. The samples were diluted appropriately with the mobile phase, and the absorbance was measured at 347 nm.

[6] = cited from earlier work; remark: listed apart in the source

CN(C)c1ccncc1 [4DMP, 4-dimethylaminopyridine]
ΔpKa for MEL ([1]; hydroxyl group of MEL): 8.61 | ΔpKa for PRM ([1]; hydroxyl group of PRM): 7.84

CN1C(C(=O)Nc2ccccn2)=C(O)c2sc(Cl)cc2S1(=O)=O.CNC(=O)NC [LRM 1,3-dimethyl urea]
IDR vs parent API (fold) ([2]; pH 1.2): 28 x | IDR vs parent API (fold) ([2]; pH 7.4): 19 x | bioavailability vs parent API (fold) [3]: 2.5 x

CN1C(C(=O)Nc2ccccn2)=C(O)c2sc(Cl)cc2S1(=O)=O.O=C(O)c1ccc(O)cc1 [LRM 4-hydroxy benzoic acid]
solubility vs parent API (fold) ([4]; in H2O): improved solubility in H2O (x 1.6–6.9)

CN1C(C(=O)Nc2ccccn2)=C(O)c2sc(Cl)cc2S1(=O)=O.Cl [LRM HCl]
dissolution vs parent API (fold) ([2]; pH 7): improved dissolution at pH 7 (x 1.3–1.6)

CN1C(C(=O)Nc2ccccn2)=C(O)c2sc(Cl)cc2S1(=O)=O.N [LRM NH3]
dissolution vs parent API (fold) ([2]; pH 7): improved dissolution at pH 7 (x 1.3–1.6)

CN1C(C(=O)Nc2ccccn2)=C(O)c2sc(Cl)cc2S1(=O)=O.O=C(O)c1ccccc1 [LRM benzoic acid]
solubility vs parent API ([4]; in H2O): no solubility advantage in H2O

CN1C(C(=O)Nc2ccccn2)=C(O)c2sc(Cl)cc2S1(=O)=O.O=C(O)CCCC(=O)O [LRM glutaric acid]
solubility vs parent API ([4]; in H2O): no solubility advantage in H2O

CN1C(C(=O)Nc2ccccn2)=C(O)c2sc(Cl)cc2S1(=O)=O.CS(=O)(=O)O [LRM methanesulfonic acid]
dissolution vs parent API (fold) ([2]; pH 7): improved dissolution at pH 7 (x 1.3–1.6)

CN1C(C(=O)Nc2ccccn2)=C(O)c2sc(Cl)cc2S1(=O)=O.O=C(O)c1ccccc1O [LRM salicylic acid]
solubility vs parent API ([4]; in H2O): no solubility advantage in H2O

Cc1cnc(NC(=O)C2=C(O)c3ccccc3S(=O)(=O)N2C)s1.O=C(O)c1ccc(O)cc1 [MEL 4-hydroxybenzoic acid]
solubility vs parent API ([4]; pH 6.5): higher solubility | bioavailability vs parent API (fold) [3]: 1.1–1.6 x

CC(=O)Oc1ccccc1C(=O)O.Cc1cnc(NC(=O)C2=C(O)c3ccccc3S(=O)(=O)N2C)s1 [MEL Aspirin]
solubility vs parent API (fold) ([4]; pH 7.4): 44 x | bioavailability vs parent API (fold) [3]: 4.4 x

Cc1cnc(NC(=O)C2=C([O-])c3ccccc3S(=O)(=O)N2C)s1.O.[K+] [MEL KOH H2O]
dissolution behavior vs parent API ([2]; pH 5.6): improved dissolution behavior | bioavailability vs parent API ([3]; in vivo): no bioavailability advantage

Cc1cnc(NC(=O)C2=C(O)c3ccccc3S(=O)(=O)N2C)s1.N=C(N)NCCCC(N)C(=O)O [MEL arginine]
dissolution behavior vs parent API ([2]; pH 7.5): improved dissolution behavior

Cc1cnc(NC(=O)C2=C(O)c3ccccc3S(=O)(=O)N2C)s1.NC(CS)C(=O)O [MEL cysteine]
dissolution behavior vs parent API ([2]; pH 7.5): improved dissolution behavior at pH 7.5

Cc1cnc(NC(=O)C2=C(O)c3ccccc3S(=O)(=O)N2C)s1.O=C(O)/C=C/C(=O)O [MEL fumaric acid]
bioavailability vs parent API [3]: no bioavailability advantage

Cc1cnc(NC(=O)C2=C(O)c3ccccc3S(=O)(=O)N2C)s1.NCC(=O)O [MEL glycine]
dissolution behavior vs parent API ([2]; pH 7.5): improved dissolution behavior at pH 7.5

Cc1cnc(NC(=O)C2=C(O)c3ccccc3S(=O)(=O)N2C)s1.O=C(O)CO [MEL glycolic acid]
bioavailability vs parent API [3]: no bioavailability advantage

Cc1cnc(NC(=O)C2=C(O)c3ccccc3S(=O)(=O)N2C)s1.O=C(O)CCc1ccccc1 [MEL hydrocinnamic acid]
bioavailability vs parent API [3]: no bioavailability advantage

Cc1cnc(NC(=O)C2=C(O)c3ccccc3S(=O)(=O)N2C)s1.Nc1ccncc1 [MEL-4AP]
dissolved MEL [5]: 0.68 ± 0.05 mg mL^–1 | dissolved MEL, times higher than that of the pure MEL ([5]; pH 6.5, 37 °C): 8.1 times | time for which the supersaturation state is maintained ([5]; pH 6.5, 37 °C): > 300 min | apparent solubility compared with the pure API ([5]; pH 6.5, this work): higher solubility at pH 6.5

CN(C)c1ccncc1.Cc1cnc(NC(=O)C2=C(O)c3ccccc3S(=O)(=O)N2C)s1 [MEL-4DMP]
dissolved MEL [5]: 0.85 ± 0.02 mg mL^–1 | time for which the supersaturation state is maintained ([5]; pH 6.5): more than 200 min | dissolved MEL, times higher than that of the pure MEL ([5]; pH 6.5, 37 °C): 10.2 times

CN1C(C(=O)Nc2ccccn2)=C(O)c2ccccc2S1(=O)=O.OCCNCCO [PRM diethanolamine]
bioavailability vs parent API [3]: higher bioavailability

CN1C(C(=O)Nc2ccccn2)=C(O)c2ccccc2S1(=O)=O.NCCO [PRM ethanolamine]
bioavailability vs parent API [3]: higher bioavailability

CN1C(C(=O)Nc2ccccn2)=C(O)c2ccccc2S1(=O)=O.Cc1nc(-c2ccc(OCC(C)C)c(C#N)c2)sc1C(=O)O [PRM febuxostat]
dissolution vs parent API (fold) ([2]; pH 6.8): 2.8 x

CN1C(C(=O)Nc2ccccn2)=C(O)c2ccccc2S1(=O)=O.COc1cc(/C=C/C(=O)O)ccc1O [PRM ferulic acid]
IDR vs parent API (fold) ([2]; pH 2): 1.7 x

CN1C(C(=O)Nc2ccccn2)=C(O)c2ccccc2S1(=O)=O.NS(=O)(=O)c1cc(C(=O)O)c(NCc2ccco2)cc1Cl [PRM furosemide]
stability under accelerated aging [6]: good stability under accelerated aging | thermal stability [6]: good thermal stability

CN1C(C(=O)Nc2ccccn2)=C(O)c2ccccc2S1(=O)=O.COC(=O)c1ccc(O)cc1 [PRM methylparaben]
IDR vs parent API ([2]; pH 1.2): no solubility and IDR advantages | dissolution rates in the sink condition ([2]; pH 1.2): superior dissolution rates

CN1C(C(=O)Nc2ccccn2)=C(O)c2ccccc2S1(=O)=O.OCCN(CCO)CCO [PRM triethanolamine]
bioavailability vs parent API [3]: higher bioavailability

CN1C(C(=O)Nc2ccccn2)=C(O)c2ccccc2S1(=O)=O.NC(N)=O [PRM urea]
solubility vs parent API [4]: no solubility advantage

CN1C(C(=O)Nc2ccccn2)=C(O)c2ccccc2S1(=O)=O.COc1cc(C=O)ccc1O [PRM vanillin]
solubility vs parent API ([4]; pH 1.2): no solubility and IDR advantages | IDR vs parent API ([2]; pH 1.2): no solubility and IDR advantages | dissolution rates in the sink condition ([2]; pH 1.2): superior dissolution rates

CN1C(C(=O)Nc2ccccn2)=C(O)c2ccccc2S1(=O)=O [PRM, Piroxicam]
dissolved PRM [5]: 0.39 mg mL^–1 and 0.39 ± 0.01 mg mL^–1 | time to highest solubility / maximum dissolved concentration / equilibrium ([5]; pH 6.5): 60 min | solubility thermodynamic at 48 h ([5]; pH 6.5, aqueous buffer): 140 µg/mL (≈ 423 µM)

CN1C(C(=O)Nc2ccccn2)=C(O)c2ccccc2S1(=O)=O.Nc1ccncc1 [PRM-4AP]
dissolved PRM [5]: 1.08 mg mL^–1 and 1.08 ± 0.02 mg mL^–1 | dissolved PRM, times higher than that of the anhydrous PRM ([5]; pH 6.5, 37 °C): 2.8 times | apparent solubility compared with the pure API ([5]; pH 6.5, this work): higher solubility

CN(C)c1ccncc1.CN1C(C(=O)Nc2ccccn2)=C(O)c2ccccc2S1(=O)=O [PRM-4DMP]
dissolved PRM [5]: 1.07 mg mL^–1 and 1.07 ± 0.01 mg mL^–1 | apparent solubility compared with the pure API ([5]; pH 6.5): higher solubility | dissolved PRM, times higher than that of the anhydrous PRM ([5]; pH 6.5, 37 °C): 2.8 times

C1CNCCN1.CN1C(C(=O)Nc2ccccn2)=C(O)c2ccccc2S1(=O)=O.CN1C(C(=O)Nc2ccccn2)=C(O)c2ccccc2S1(=O)=O [PRM-PPZ]
dissolved PRM [5]: 0.43 mg mL^–1 and 0.43 ± 0.04 mg mL^–1 | apparent solubility compared with the pure API ([5]; pH 6.5): higher solubility | dissolved PRM, times higher than that of the anhydrous PRM ([5]; pH 6.5, 37 °C): 1.1 times

CN1C(C(=O)Nc2ccccn2)=C(O)c2sccc2S1(=O)=O.Cl [TNM HCl]
solubility vs parent API ([4]; pH 7): no solubility and IDR advantages at pH 7 | IDR vs parent API ([2]; pH 7): no solubility and IDR advantages at pH 7

CN1C(C(=O)Nc2ccccn2)=C(O)c2sccc2S1(=O)=O.O=C(O)c1ccccc1 [TNM benzoic acid]
solubility vs parent API ([4]; pH 7): no solubility advantage | IDR vs parent API (fold) ([2]; pH 7): 2 x

CN1C(C(=O)Nc2ccccn2)=C(O)c2sccc2S1(=O)=O.O=C(O)CO [TNM glycolic acid]
IDR vs parent API ([2]; pH 4.5): no IDR advantage at pH 4.5 and 6.8 | IDR vs parent API ([2]; pH 6.8): no IDR advantage at pH 4.5 and 6.8

CN1C(C(=O)Nc2ccccn2)=C(O)c2sccc2S1(=O)=O.CS(=O)(=O)O [TNM methanesulfonic acid]
solubility vs parent API ([4]; pH 7): no solubility and IDR advantages at pH 7 | IDR vs parent API ([2]; pH 7): no solubility and IDR advantages at pH 7

C1CNCCN1.CN1C(C(=O)Nc2ccccn2)=C(O)c2sccc2S1(=O)=O [TNM piperazine]
solubility vs parent API (fold) ([4]; pH 7): 5.5 x | IDR vs parent API (fold) ([2]; pH 7): 2.5 x

CN1C(C(=O)Nc2ccccn2)=C(O)c2sccc2S1(=O)=O.Oc1cccc(O)c1O [TNM pyrogallol]
solubility vs parent API (fold) ([4]; pH 7): 5.8–10.1 x | IDR vs parent API (fold) ([2]; pH 7): 2.4–4.2 x

CN1C(C(=O)Nc2ccccn2)=C(O)c2sccc2S1(=O)=O.O=C1NS(=O)(=O)c2ccccc21 [TNM saccharin]
IDR vs parent API ([2]; pH 4.5): no IDR advantage at pH 4.5 and 6.8 | IDR vs parent API ([2]; pH 6.8): no IDR advantage at pH 4.5 and 6.8

CN1C(C(=O)Nc2ccccn2)=C(O)c2sccc2S1(=O)=O.O=C(O)c1ccccc1O [TNM salicylic acid]
solubility vs parent API ([4]; pH 7): no solubility and IDR advantages at pH 7 | IDR vs parent API ([2]; pH 4.5): no IDR advantage at pH 4.5 and 6.8 | IDR vs parent API ([2]; pH 6.8): no IDR advantage at pH 4.5 and 6.8 | IDR vs parent API ([2]; pH 7): no solubility and IDR advantages at pH 7

CN1C(C(=O)Nc2ccccn2)=C(O)c2sccc2S1(=O)=O.O=C(O)CCC(=O)O [TNM succinic acid]
IDR vs parent API ([2]; pH 4.5): no IDR advantage at pH 4.5 and 6.8 | IDR vs parent API ([2]; pH 6.8): no IDR advantage at pH 4.5 and 6.8
